# According to patent publication US11401303B2, “Synthetic peptide BRAP and application in preparation of anti-inflammatory drug for COVID-19 thereof” (TAIAN CITY QIHANG BIOTECHNOLOGY CO., priority 2020, dated 2022):
# Ends that are not written are not given here.
# Experiments:
# IL-6 mRNA = test: IL6 mRNA expression in lung tissues of LPS-induced mice by qPCR; format: in vivo, Balb/C mice
# Description: 1.1 Lung tissue sample: a fresh lung tissue sample from each group of mice constructed in example 9 was taken and quick-frozen by liquid nitrogen as quickly as possible, and kept at […].
# 2. Extraction of total RNA (a total RNA extraction kit via a paramagnetic particle method was used)
# 2.1 The tissue sample was cut into small pieces, and ground (50 mg) to powder via liquid nitrogen, and transferred to a 1.5 ml tube free of RNA enzyme (cell sample and other liquid samples required no grinding, and were directly put to the next step).
# Using the operational method of Applied Biosystems 7300/7500/7500 Fast Real-Time PCR System and StepOnePlusTMReal-Time PCR System
# 1. Preparation of a PCR reaction liquid
# 2. Real Time PCR reaction was performed.
# At the end of the reaction, an amplification curve and dissociation curve of Real Time
# PCR were confirmed, and 2^−ΔΔct and the like were calculated.
# [1] = test system: BK-induced pulmonary microvascular leakage; test: BK-induced pulmonary microvascular leakage in guinea pigs (Evans blue in lung tissue); format: in vivo, guinea pig; settings: intranasal 50 μL/side/day for 3 days
# Description: Male guinea pigs weighing 400 g±5% were randomly divided into 6 groups, 6 per group.
# 1. normal control group: an equal volume of normal saline was injected intravenously on the lateral foot vein, for 3 days;
# 2. model group: an equal volume of normal saline was injected intravenously on the lateral foot vein, for 3 days;
# 3. positive control group: 1.25 mg/3 ml/kg BW dexamethasone was injected intravenously on the lateral foot vein, for 3 days;
# 4. high-dose synthetic peptide brap group: bilateral nasal cavities of the guinea pig were injected the synthetic peptide brap having a concentration of 3.0 mM/L by a micro-sampling gun with 50 μL/side/day for 3 days; […]
# 2. […] The solution was centrifuged for 5 min at 1500 rpm/min; supernatant was taken to measure the absorbance with a wavelength of 620 nm.
# 3. Preparation of an EB standard curve: 0.1 mL 0.1% EB solution was taken accurately and added 0.9 mL normal saline to be prepared into 1 mL 0.01% EB standard solution; 0.1 mL EB standard solution was taken and added formamide to 2 mL with a final concentration of 5 mg/L; then the solution was diluted by formamide to 4, 2, 1, and 0.5 mg/L. An absorbancy OD value was measured at a wavelength of 620 nm; OD value was denoted y-coordinate; EB concentration was denoted by x-coordinate; then a standard curve of OD value-EB concentration was drawn, as shown in FIG. 7A.
# ROS = ROS fluorescence intensity in lung tissue of LPS-induced mice by flow cytometry; format: in vivo, Balb/C mice
# Description: 1. About 100 mg fresh left lung tissue from each group of mice constructed in example 9 was taken and washed for three times with PBS to remove blood;
# 2. the tissue was put in a nylon net, ground by a grinding rod, and washed by PBS;
# 3. a cell suspension was collected, and filtered by a 200-mesh sieve to remove tissue blocks;
# 4. the cell suspension was collected and centrifuged for 5 min at 1000 rpm/min;
# 5. cellular supernatant was removed and PBS was added for resuspending;
# 6. 10 μmol/L DCFH-DA was prepared with a serum-free culture solution;
# 7. cells were centrifuged to remove PBS, and the above probe diluent was added to make the cell concentration being 10^6/ml;
# 8. the cells were incubated for 30 min at 37° C., and shaken off for once every 3 min;
# 9. the cells were centrifuged for 5 min at 1000 rpm/min, and cell precipitates were resuspended on a serum-free culture medium;
# 10. step 9 was repeated for twice;
# 11. 500 μL PBS was added to resuspend cells, and flow cytometry was used to detect mean fluorescence intensity.
# [2] = Limit test on intravenous injection at 2000 mg/kg BW dose level; format: in vivo, Konmin mouse
# Description: I. Test Animal (Subject): Konmin Mouse: Healthy, Adult, Male, Weight≤20 g, and n=5 pcs
# III. Administration Route and Dose: 2000 mg/kg BW was Injected Via a Tail Vein
# Administration capacity: the maximum injection capacity of the mice tail vein was 0.5 ml/once, slow injection
# Dose and mode of administration: 40 mg/1.5 ml working solution was administered for 3 times within 9 h.
# 1) a test substance (synthetic peptide brap) having a dose of 2000 mg/kg was injected to the first Konmin mouse via tail vein;
# 2) whether of causing toxic responses (initial symptom, starting time, namely, time period after administration, severity and duration) was observed and recorded;
# 3) if the animal died, the response before being at death's door and the occurrence time of death were recorded.
# [3] = 2000 mg/kg BW via tail vein in 3 injections, individual mouse
sequence,measurement,setting,value
RVLNGPEAPA [brap],IL-6 mRNA overexpression in lung tissues,IL-6 mRNA; intranasal administration,obviously decrease the overexpression
same,IL-6 mRNA overexpression in lung tissues,IL-6 mRNA; intravenous injection,obviously decrease the overexpression
same,Content of EB in lung tissues compared with the positive control group (dexamethasone),"[1]; P>0.05, except for the low-dose group",no significant difference
same,Content of EB in lung tissues compared with the model group,"[1]; low, medium, high dose (0.33, 1.0, 3.0 mM/L), P<0.01, dose-response relationship",obviously lower than that in the model group
same,ROS content in lung tissues,ROS; induced by LPS for 6 h,obviously reducing the increase in ROS content
same,ROS content in lung tissue,ROS; induced by LPS for 12 h,obviously reducing the increase in ROS content
same,ROS content in lung tissues,"ROS; intranasal administration, LPS-induced mice",reducing the overly increased ROS content
same,ROS content in lung tissues,"ROS; intravenous injection, LPS-induced mice",obviously decreases the overly increased ROS content
same,"Death situation/survival animals, 72 h after administering",[2]; [3],No death
same,Toxic response manifestation,[2]; [3],No abnormal
same,Toxicity in the limit test,"[2]; intravenous injection of 2000 mg/kg BW, mice n=5",no toxicity was found
same,LD50 at 9 h,"[2]; male, Konmin, in vivo, 2000 mg/kg BW, intravenous, mouse, judgment rule if survival animals ≥3 (5 of 5 survived)",> 2000 mg/kg
